Total cholesterol and Body weight data for 11 compounds are collected here from ChEMBL document CHEMBL1136150, “Hypocholesterolemic activity of hesperetin derivatives” (2003).

Common to all, as to format: functional
The species entered for test [1] is Mus musculus. The experiment in a line: Effect on plasma total cholesterol in high cholesterol-fed mice after 10 day.
For test [2], the species on record is Mus musculus. The experiment in a line: Effect on plasma total cholesterol in high cholesterol-fed mice after 0 day.
The species named for test [3] is Mus musculus. As to the kind of experiment: Body weight of the high cholesterol-fed mice after 0 day.
The species entered for test [4] is Mus musculus. As to the kind of experiment: Body weight of the high cholesterol-fed mice after 10 day.

Regarding `CCCCCCCCCCCC(=O)Oc1cc(O)c2c(c1)OC(c1ccc(OC)c(O)c1)CC2=O` (configuration not stated), the Total cholesterol was determined as 192 mg/dL in test [1] and 95 mg/dL in test [2]. For the same compound, the Body weight in test [3] and in test [4] was 22.4 g throughout.

Consider `CCCCCCCC/C=C\CCCCCCCC(=O)Oc1cc(O)c2c(c1)OC(c1ccc(OC)c(O)c1)CC2=O` (configuration not stated), for which the figures for the Body weight in test [3] and in test [4] were 22.3 g and 23.8 g, respectively.

`CCCCCCCCCCCCCCCCCC(=O)Oc1cc(O)c2c(c1)OC(c1ccc(OC)c(O)c1)CC2=O` (configuration not stated): the results for the Total cholesterol in test [1] and in test [2] were 214 mg/dL and 95 mg/dL, respectively. Moreover, the Body weight turned out to be 22.3 g in test [3] and 23.7 g in test [4].

Take `CCCCCCCCCCCCCCCCOc1cc(O)c2c(c1)OC(c1ccc(OC)c(O)c1)CC2=O` (configuration not stated): the Total cholesterol stood at 202 mg/dL in test [1] and 93 mg/dL in test [2]. In addition, the Body weight in test [3] is given as 22.5 g; in test [4], 23 g.

Turning to `CCCCCCCCCCCCOc1cc(O)c2c(c1)OC(c1ccc(OC)c(O)c1)CC2=O` (configuration not stated), the Total cholesterol in test [1] worked out at 189 mg/dL; in test [2], 95 mg/dL. Also, the Body weight is 22 g in test [3] and 22.4 g in test [4].

Take `COc1ccc(C2CC(=O)c3c(O)cc(OC(C)=O)cc3O2)cc1O` (configuration not stated): the Total cholesterol was determined as 220 mg/dL in test [1] and 96 mg/dL in test [2]. Further, the Body weight in test [3] came out at 23.4 g; in test [4] it was 23.7 g.

On to `CCCCCCCC/C=C\CCCCCCCCOc1cc(O)c2c(c1)OC(c1ccc(OC)c(O)c1)CC2=O` (configuration not stated), for which the Total cholesterol was found to be 192 mg/dL in test [1] and 96 mg/dL in test [2]. In addition, the values for the Body weight in test [3] and in test [4] were 23.4 g and 23.7 g, respectively.

As for `COc1ccc([C@@H]2CC(=O)c3c(O)cc(O)cc3O2)cc1O` [HESPERETIN], the Total cholesterol came out at 216 mg/dL in test [1] and 103 mg/dL in test [2]. Further, the Body weight in test [3] was 25.4 g; in test [4], 25.6 g.

For `CCCCCCCCCCCCCCCCCCOc1cc(O)c2c(c1)OC(c1ccc(OC)c(O)c1)CC2=O` (configuration not stated), the Total cholesterol in test [1] amounted to 208 mg/dL; in test [2], 101 mg/dL. The Body weight in test [3] is given as 23.1 g; in test [4] it was 24.4 g.

In the case of `CCOc1cc(O)c2c(c1)OC(c1ccc(OC)c(O)c1)CC2=O` (configuration not stated), the Total cholesterol in test [1] stood at 218 mg/dL; in test [2], 102 mg/dL. Further, the Body weight worked out at 21.9 g in test [3] and 22.5 g in test [4].

`CCCCCCCCCCCCCCCC(=O)Oc1cc(O)c2c(c1)OC(c1ccc(OC)c(O)c1)CC2=O` (configuration not stated): the Total cholesterol was determined as 209 mg/dL in test [1] and 97 mg/dL in test [2]. Further, the Body weight was 21.7 g in test [3] and 23.4 g in test [4].
